Source: US20130040991A1, “PHARMACEUTICAL COMPOSITION COMPRISING GEMFIBROZIL AND CYP2C8 AND/OR OATP SUBSTRATE DRUG SUCH AS REPAGLINIDE” (priority 2010, published 2013)

Columns and labels:
[1] = biological target: T1, CYP2C8 (Homo sapiens, UniProt P10632); parameters: Estimation of CYP2C8 Half-Life Using Repaglinide as an in Vivo Probe; host or cells: in vivo (subjects of the cited studies); details: cited from earlier work
T1 sequence (P10632 1-490): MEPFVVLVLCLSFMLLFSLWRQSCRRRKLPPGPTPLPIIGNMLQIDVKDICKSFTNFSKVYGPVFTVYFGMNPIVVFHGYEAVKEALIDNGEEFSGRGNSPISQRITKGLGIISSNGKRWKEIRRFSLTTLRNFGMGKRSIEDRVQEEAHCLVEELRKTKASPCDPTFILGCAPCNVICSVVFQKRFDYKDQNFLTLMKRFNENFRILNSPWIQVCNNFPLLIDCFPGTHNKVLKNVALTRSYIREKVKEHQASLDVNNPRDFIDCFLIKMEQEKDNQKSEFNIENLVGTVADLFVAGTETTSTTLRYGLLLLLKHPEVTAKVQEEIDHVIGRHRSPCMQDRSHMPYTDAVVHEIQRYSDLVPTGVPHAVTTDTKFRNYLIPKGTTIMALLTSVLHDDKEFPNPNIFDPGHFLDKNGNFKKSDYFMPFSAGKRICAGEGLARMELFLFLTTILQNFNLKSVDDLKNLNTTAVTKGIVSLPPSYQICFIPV

[2] = biological target: T1, CYP2C8; parameters: Estimation of CYP2C8 Half-Life Using Repaglinide as an in Vivo Probe; host or cells: in vivo (subjects of the cited studies); details: gemfibrozil 600 mg twice daily; Tornio et al 2008; cited from earlier work
[3] = biological target: T1, CYP2C8; assay: Effect of single oral gemfibrozil doses on repaglinide AUC, fitted to a mechanistic model of CYP2C8 inhibition; type: in vivo; parameters: The subjects ingested in a cross-over study a small dose (0.25 mg) of repaglinide with different doses of gemfibrozil; from tissue; host or cells: living human subjects (in vivo)
Procedure: The effect of various oral single doses (30 mg, 100 mg, 300 mg and 900 mg) of gemfibrozil on the total plasma exposure, i.e., area under the plasma concentration-time curve (AUC), of a CYP2C8 and OATP1B1 substrate drug (repaglinide) was measured. The mean fold increase in the AUC (AUCi/AUCc) of repaglinide with the different gemfibrozil doses in six human subjects is given in relation to the mean average plasma concentration of gemfibrozil 1-O-β-glucuronide during 10 hours after gemfirozil dosing (Cavg). The subjects ingested in a cross-over study a small dose (0.25 mg) of repaglinide with different doses of gemfibrozil. Venous blood samples were taken at fixed time points up to 10 hours after gemfibrozil dosing, and plasma repaglinide, gemfibrozil and gemfibrozil 1-O-β-glucuronide concentrations were determined using a validated liquid chromatographic-tandem mass spectrometric (LC/MSMS) method. The data were fitted to the following mechanistic model (equation):

[4] = Effects of different gemfibrozil doses on plasma profiles of repaglinide, repaglinide dose adjusted to equal AUC; type: in vivo, human; details: when the ratio of gemfibrozil (0-900 mg) to repaglinide is increased; repaglinide dose adjusted to same AUC
Procedure: The effects of different doses of gemfibrozil (0 mg, 30 mg, 100 mg, 300 mg and 900 mg) on plasma profiles of repaglinide were measured. The doses of repaglinide were adjusted so that the total exposure to repaglinide (defined as the area under plasma repaglinide concentration-time curve, AUC) is the same in all 5 cases, corresponding to the AUC after a single dose of 0.25 mg repaglinide without gemfibrozil.

For Cc1ccc(C)c(OCCCC(C)(C)C(=O)O[C@@H]2O[C@H](C(=O)O)[C@@H](O)[C@H](O)[C@H]2O)c1 [gemfibrozil 1-O-β-glucuronide], the “inhibitor of CYP2C8 (qualitative)” value [1] is listed as “potent inhibitor and inactivator”.

In the case of Cc1ccc(C)c(OCCCC(C)(C)C(=O)O)c1 [gemfibrozil, 5-(2,5-dimethylphenoxy)-2,2-dimethyl-pentanoic acid], the “inhibitor of CYP2C8 (qualitative)” value [1] is given as “relatively weak inhibitor”, the “persistence of the risk of gemfibrozil-related interactions (effect on repaglinide pharmacokinetics) after the dose” value [2] is given as “at Least 12 hours” and the “effect of small gemfibrozil doses in repeated dosing” value ([3]; repeated dosing, gemfibrozil doses <30 mg, due to irreversible inhibition of CYP2C8) is given as “increased”. The “inhibition of the CYP2C8 enzyme” value ([3]; single oral dose of 100 mg gemfibrozil, model-based from fold increase in repaglinide (0.25 mg) AUC, six human subjects) was 90%.

For CCOc1cc(CC(=O)N[C@@H](CC(C)C)c2ccccc2N2CCCCC2)ccc1C(=O)O [repaglinide], the “elimination half-life (and effect) of repaglinide” value [4] was “prolonged” and the “estimated peak concentration of repaglinide” value [4] was “reduced”.
